The results in this text go back to US9877962B2, “Piperazinyl derivatives for the treatment of cancer” (priority 2011, dated 2018).

Broadly, the solubility is how much of the substance goes into solution per volume. Broadly, the AUC(0-inf) is the area under the concentration-time curve extrapolated to infinity. Read a high AUC(0-inf) as high exposure. A word on the AUC(0-t): it is exposure summed from dosing to a finite time, without extrapolation to infinity. A low value points to low exposure. What is called Cmax is the highest concentration seen after dosing.

The nature of data set [1]: Determination of aqueous solubility. Format: physicochemical. The following applies: aqueous medium, aqueous buffer, thermodynamic from solid, pH 7.4, agitation 24 h, 20° C., HPLC. As to the method:
The aqueous solubility of each compound was measured at pH 7.4. It was measured using HPLC on the supernatants obtained by centrifugation after saturation of the media with excess compound after an agitation time of 24 h and at a temperature of 20° C. The preparation and treatment of the samples was robotized.

Data set [2] can be described thus: Pharmacokinetic parameters in mice. Format: in vivo, balb/c mice. The following applies: for AUC(0-inf) / AUC(0-t) / Cmax / half-life: mouse, balb/c mice, intravenous route, 10 mg/kg, plasma; for half-life: read-out: t½ (converted). As to the method: The pharmacokinetic behaviour of compounds is a pre-requisite for reasonable use thereof in in vivo experimentation. The compounds were given in DMSO solution via intravenous route (IV) or oral route (PO) to balb/c mice. Blood samples were taken at times ranging from 5 minutes to 6 hours, the plasmas were collected and the concentration of the compounds in each sample was assayed by LC/MS/MS. The data obtained allowed the plotting of time-concentration curves and determination of fundamental parameters such as plasma half-life of the compound (T½), area under curve at a given time (AUCt) and the maximum concentration obtained (Cmax).

Another data set relates to MCF-7. Description: Cytotoxicity test (ViaLight Plus cell proliferation) on MCF-7. In kind it is cell-based, human. The following applies: 72 hours' incubation, cell viability vs 0.5% DMSO control; for pIC50: Homo sapiens, MCF7, 72 h, read-out: EC50 MCF-7. The text has this: (§1) The effects of the compounds of the invention on the proliferation of cancer cells were studied on different human cancer cell lines of different tissue origin (MCF-7: breast cancer, MCF-7/adr adriamycin-resistant breast cancer, HL-60: acute promyelocytic leukaemia, HL-60/R10: doxorubicin-resistant acute promyelocytic leukaemia, HT29: colon adenocarcinoma, Mia Paca2: pancreatic tumour, Panc-1: pancreatic exocrine tumour, SK-OV-3: cisplatin- and adriamycin resistant ovarian cancer). The cancer cells used for this study were incubated at 37° C. in the presence of one of the compounds of the invention added to the culture medium at different concentrations.
(§2) The cancer cell lines were obtained from ATCC (American Type Culture Collection) for MCF-7, from Hôpital de la Pitié Salpetrière for MCF-7/adr and from Oncodesign (Dijon, France) for HL-60, HL-60/R10, HT29, MiaPaCa2, Panc-1 and SK-OV-3. They were cultured in RPMI 1640 medium containing 2 mM L-Glutamine supplemented with 10% foetal calf serum (Lonza; Verviers, Belgium). All the cell lines were held in culture at 37° C. in a humid atmosphere containing 5% CO2. Cell proliferation was assessed using the ViaLight® Plus Assay Kit (Lonza; Verviers, Belgium) following the manufacturer's instructions. The cells were seeded in 96-well culture plates compatible with luminescence read-off (white plates with transparent bottom) in a proportion of 5 000 to 10 000 cells per well in 100 μl of culture medium. After a pre-incubation time of 24 hours at 37° C., the compounds of the invention dissolved in dimethylsulfoxide (DMSO) were individually added to each well in a proportion of 0.5 μl per well. After 72 hours' incubation at 37° C. in a humid atmosphere containing 5% CO2, 50 μl of lysis buffer were added to each well and 15 minutes later 100 μl of ATP measuring agent were added. The plates were read under a luminometer to evaluate cell viability. The data obtained was processed by computer to obtain the EC50 value i.e. the concentration value of each of the compounds which induces 50% cell viability compared with a control value (0.5% DMSO alone).

A further data set has as its system MCF-7/adr. Briefly: Cytotoxicity test (ViaLight Plus cell proliferation) on MCF-7/adr. In kind it is cell-based, human. The following applies: adriamycin-resistant line, 72 hours' incubation, cell viability vs 0.5% DMSO control; for pIC50: Homo sapiens, NCI/ADR-RES, 72 h, read-out: EC50 MCF-7/adr.
The next data set relates to Panc-1. Description: Cytotoxicity test (ViaLight Plus cell proliferation) on Panc-1. Format: cell-based, human. The following applies: 72 hours' incubation, cell viability; for pIC50: Homo sapiens, PANC-1, read-out: EC50 Panc-1.
Text: as §1, §2

A further data set relates to Mia PaCa2. Briefly: Cytotoxicity test (ViaLight Plus cell proliferation) on Mia PaCa2. Format: cell-based, human. The following applies: 72 hours' incubation, cell viability; for pIC50: Homo sapiens, MIA PaCa-2, read-out: EC50 Mia PaCa2.
Text: as §1, §2

Another data set relates to HL-60/R10. Briefly: Cytotoxicity test (ViaLight Plus cell proliferation) on HL-60/R10. Format: cell-based, human. The following applies: doxorubicin-resistant line, 72 hours' incubation, cell viability vs 0.5% DMSO control, read-out: EC50 HL60/R10; for pIC50: HL-60, 72 h.
For the next data set, the system named is SK-OV-3. Description: Cytotoxicity test (ViaLight Plus cell proliferation) on SK-OV-3. Format: cell-based, human. The following applies: cisplatin- and adriamycin resistant line, 72 hours' incubation, cell viability; for pIC50: Homo sapiens, SK-OV-3, read-out: EC50 SK-OV-3.
Text: as §1, §2

The test system of a further data set is HL-60. Briefly: Cytotoxicity test (ViaLight Plus cell proliferation) on HL-60. The following applies: 72 hours' incubation, cell viability vs 0.5% DMSO control; for pIC50: HL-60, 72 h, read-out: EC50 HL-60. In kind it is cell-based, human.
In the next data set the test system is HT29. Briefly: Cytotoxicity test (ViaLight Plus cell proliferation) on HT29. The following applies: 72 hours' incubation, cell viability; for pIC50: Homo sapiens, HT-29, read-out: EC50 HT29. In kind it is cell-based, human.
Text: as §1, §2

Each structure is given as a SMILES string. pEC50, pIC50: −log10 of the molar value. Values after ≈ are worked out from the molar mass of the structure shown. Like-named read-outs stand apart in the source and are kept apart here.

For `CC(C)[C@H]1CN(C(=O)C(c2cccs2)N(C(=O)CCl)c2ccc(Oc3ccccc3)cc2)CCN1` (some centres unmarked), in [1], the solubility at 24 h turned out to be 50 µg/mL (≈ 97.6 µM).

In the case of `Cc1cc(Oc2ccccc2)ccc1N(C(=O)CCl)C(C(=O)N1CC(C)NC(C)C1)c1cccs1.Cl` (centres unmarked), in [2], the AUC(0-inf) turned out to be 3840 ng·h/mL, the exposure AUC(0-t) turned out to be 3290 ng·h/mL, the highest level (Cmax) was 3800 ng/mL and the half-life was 2.64 h.

Turning to `Cc1cc(Oc2ccccc2)ccc1N(C(=O)CCl)C(C(=O)N1CCN[C@@H](C)C1)c1cccs1.Cl` (some centres unmarked), in data set [2], the total exposure AUC(0-inf) was 2060 ng·h/mL, the area under the curve AUC(0-t) came out at 1680 ng·h/mL, the highest level (Cmax) was 1420 ng/mL and the half-life is 2.47 h.

With `CC(C)[C@H]1CN(C(=O)C(c2ccc(F)cc2)N(C(=O)CCl)c2ccc(Oc3ccccc3)cc2)CCN1` (single isomer, unassigned) [I-3 dia2], the pEC50 in the data set with MCF-7 was 6.52; with MCF-7/adr, 8.05; in the data set with HL-60/R10 it was 8.70; with HL-60, 6.30. In addition, the pIC50 was 9.00 with Panc-1, 8.70 in the data set on Mia PaCa2, 9.00 with SK-OV-3 and 9.00 with HT29.

For the molecule `Cc1cc(Oc2ccccc2)ccc1N(C(=O)CCl)C(C(=O)N1CCN[C@@H](C(C)C)C1)c1ccc(F)cc1` (single isomer, unassigned) [I-7 dia2], the pEC50 is 5.71 with MCF-7, 7.01 with MCF-7/adr, 7.59 in the data set with HL-60/R10 and 5.71 with HL-60. Further, the pIC50 was 8.30 with Panc-1, 7.89 with Mia PaCa2, 8.15 with SK-OV-3 and 8.10 in the data set with HT29.

For `Cc1cc(Oc2ccccc2)ccc1N(C(=O)CCl)C(C(=O)N1CCN[C@@H](C)C1)c1cccs1` (single isomer, unassigned) [I-43 dia2], the pIC50 in the data set on MCF-7 was 5.85; in the data set on MCF-7/adr, 6.90; in the data set on Panc-1, 8.15; with Mia PaCa2, 7.74; in the data set with HL-60/R10 (Homo sapiens), 7.70; in the data set on SK-OV-3, 8.05. Also, the pIC50 with HL-60 (Homo sapiens) is 5.72; in the data set with HT29 it was 8.00. Further, the “bioavailability in a mouse” value in [2] (IV 10 mg/kg or PO 30 mg/kg, FIG. 1) is on record as “good bioavailability”.

Consider `Cc1cc(Oc2ccccc2)ccc1N(C(=O)CCl)C(C(=O)N1CCN[C@@H](C(C)C)C1)c1cccs1` (single isomer, unassigned; dia2) [I-46 dia2], for which the pEC50 is 5.93 in the data set on MCF-7; 7.24 with MCF-7/adr; 8.40 in the data set on Panc-1; 8.00 with Mia PaCa2; 8.00 in the data set with HL-60/R10; 8.22 in the data set on SK-OV-3. Besides, the figures for the pEC50 with HL-60 and in the data set with HT29 were 6.35 and 8.22, respectively.

As for `CC(C)[C@H]1CN(C(=O)C(c2cccs2)N(C(=O)CCl)c2cccc(C(F)(F)F)c2)CCN1` (single isomer, unassigned; dia2) [I-50 dia2], the pEC50 was 8.05 in the data set with Panc-1; 5.66 with Mia PaCa2; 8.10 in the data set with HL-60/R10; 7.96 with SK-OV-3; 6.08 in the data set on HL-60; 8.05 in the data set with HT29.

Take `C[C@H]1CN(C(=O)C(c2cccs2)N(C(=O)CCl)c2ccc(Oc3ccccc3)cc2)CCN1.Cl` (some centres unmarked) [Example I-58]: the pIC50 in the data set on MCF-7 is 6.06; in the data set with MCF-7/adr it was 7.06; in the data set with HL-60/R10 (Homo sapiens) it was 7.96; in the data set with HL-60 (Homo sapiens), 5.98. This molecule displayed a solubility at 24 h in data set [1] of 203 µg/mL. For the same molecule, the pEC50 in the data set with HL-60/R10 (Homo sapiens, HL-60) was 7.96; with HL-60 (Homo sapiens, HL-60) it was 5.98.

Consider `C[C@@H]1CN(C(=O)C(c2cccs2)N(C(=O)CCl)c2ccc(Oc3ccccc3)cc2)CCN1.Cl` (some centres unmarked) [Example I-59], for which the pIC50 in the data set with MCF-7 was 6.13; in the data set on MCF-7/adr, 6.97; with HL-60/R10 (Homo sapiens), 7.80; with HL-60 (Homo sapiens), 6.02. Also, in data set [1], the concentration in solution (solubility at 24 h) was 152 µg/mL. The pEC50 with HL-60/R10 (Homo sapiens, HL-60) was 7.80.

With `Cl.O=C(C(c1cccs1)N(C(=O)CCl)c1ccc(Oc2ccccc2)cc1)N1CCNCC1` (centres unmarked) [reference compound], the solubility at 24 h in [1] was 68 µg/mL. The pIC50 is 7.68 in the data set with HL-60/R10 (Homo sapiens) and 6.24 in the data set on HL-60 (Homo sapiens).

With `C[C@H]1CNCCN1C(=O)C(c1cccs1)N(C(=O)CCl)c1ccc(Oc2ccccc2)cc1.Cl` (some centres unmarked) [reference compound], the concentration in solution in [1] (solubility at 24 h) came to 105 µg/mL. For the same molecule, the pIC50 with HL-60/R10 (Homo sapiens) is 7.19; with HL-60 (Homo sapiens), 6.18.

Take `Cc1cc(Oc2ccccc2)ccc1N(C(=O)CCl)C(C(=O)N1CCNCC1)c1cccs1.Cl` (centres unmarked) [reference compound]: in data set [2], the area under the curve AUC(0-inf) amounted to 1320 ng·h/mL, the exposure AUC(0-t) came out at 1280 ng·h/mL, the Cmax came out at 1470 ng/mL and the half-life was 1.38 h.
